Test results as given in ChEMBL document CHEMBL1201862, “PubChem BioAssay data set” (2004).
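Assay format: 96-well plates, 48-hour exposure. Here, GI50 denotes the concentration required for 50% inhibition of growth.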 Calls of active or inactive are those of the source. Rule as the data show it: active = GI50 up to about 1.1 µM and inactive = higher.

How the values were obtained:
Experiment in all cases: DTP human tumour cell line panel, 48 h
MDA-N = tested on: MDA-N
CCRF-CEM = tested on: CCRF-CEM
SNB-75 = tested on: SNB-75
HCT-116 = tested on: HCT-116
SR = tested on: SR
SK-MEL-28 = tested on: SK-MEL-28
MDA-MB-435 = tested on: MDA-MB-435
KM12 = tested on: KM12
NCI-H226 = tested on: NCI-H226
OVCAR-4 = tested on: OVCAR-4
ACHN = tested on: ACHN
K562 = tested on: K562
Hs-578T = tested on: Hs-578T
UO-31 = tested on: UO-31
SW-620 = tested on: SW-620
HOP-92 = tested on: HOP-92
LOX IMVI = tested on: LOX IMVI
MCF7 = tested on: MCF7
SK-MEL-5 = tested on: SK-MEL-5
SN12C = tested on: SN12C
A498 = tested on: A498
SF-295 = tested on: SF-295
HCC 2998 = tested on: HCC 2998
RXF 393 = tested on: RXF 393
UACC-257 = tested on: UACC-257
DU-145 = tested on: DU-145
NCI-H522 = tested on: NCI-H522
U-251 = tested on: U-251
OVCAR-8 = tested on: OVCAR-8
NCI-H460 = tested on: NCI-H460
NCI/ADR-RES = tested on: NCI/ADR-RES
MOLT-4 = tested on: MOLT-4
NCI-H23 = tested on: NCI-H23
HT-29 = tested on: HT-29
A549 = tested on: A549
TK-10 = tested on: TK-10
SK-OV-3 = tested on: SK-OV-3
PC-3 = tested on: PC-3
SF-268 = tested on: SF-268
SNB-19 = tested on: SNB-19
COLO 205 = tested on: COLO 205
HOP-62 = tested on: HOP-62
MDA-MB-231 = tested on: MDA-MB-231
RPMI-8226 = tested on: RPMI-8226
UACC-62 = tested on: UACC-62
Malme-3M = tested on: Malme-3M
CAKI-1 = tested on: CAKI-1
EKVX = tested on: EKVX
OVCAR-5 = tested on: OVCAR-5
SF-539 = tested on: SF-539
786-0 = tested on: 786-0
HL-60 = tested on: HL-60
IGROV-1 = tested on: IGROV-1
OVCAR-3 = tested on: OVCAR-3
HCT-15 = tested on: HCT-15
SK-MEL-2 = tested on: SK-MEL-2
M14 = tested on: M14

Measured: GI50

C1CSCC2(COC2)CS1
inactive: MDA-N > 100 µM | CCRF-CEM > 100 µM | SNB-75 > 100 µM | HCT-116 > 100 µM | SR > 100 µM | SK-MEL-28 > 100 µM | MDA-MB-435 > 100 µM | KM12 > 100 µM | NCI-H226 > 100 µM | OVCAR-4 > 100 µM | ACHN > 100 µM | K562 > 100 µM | Hs-578T > 100 µM | UO-31 > 100 µM | SW-620 > 100 µM | HOP-92 > 100 µM | LOX IMVI > 100 µM | MCF7 > 100 µM | SK-MEL-5 > 100 µM | SN12C > 100 µM | A498 > 100 µM | SF-295 > 100 µM | HCC 2998 > 100 µM | RXF 393 > 100 µM | UACC-257 > 100 µM | DU-145 > 100 µM | NCI-H522 > 100 µM | U-251 > 100 µM | OVCAR-8 > 100 µM | NCI-H460 > 100 µM | NCI/ADR-RES > 100 µM | MOLT-4 > 100 µM | NCI-H23 > 100 µM | HT-29 > 100 µM | A549 > 100 µM | TK-10 > 100 µM | SK-OV-3 > 100 µM | PC-3 > 100 µM | SF-268 > 100 µM | SNB-19 > 100 µM | COLO 205 > 100 µM

O=S(=O)(O)c1ccc2c(/N=N/c3ccccc3)c(O)ccc2c1
inactive: MDA-N > 100 µM | HOP-62 > 100 µM | NCI-H226 > 100 µM | OVCAR-4 > 100 µM | ACHN > 100 µM | MDA-MB-231 > 100 µM | K562 > 100 µM | Hs-578T > 100 µM | LOX IMVI > 100 µM | RPMI-8226 > 100 µM | SF-295 > 100 µM | NCI-H522 > 100 µM | NCI/ADR-RES > 100 µM | NCI-H23 > 100 µM | HT-29 > 100 µM | A549 > 100 µM | TK-10 > 100 µM | UACC-62 > 100 µM | PC-3 > 100 µM | SF-268 > 100 µM | Malme-3M > 100 µM

CC(C)[Si](Oc1cc2c3c(ccc2c(O)c1[C@@H](C)CO[Si](C)(C)C(C)(C)C)C(C)(C)CCC3)(C(C)C)C(C)C
> 100 µM: HCT-15
inactive: MDA-N > 100 µM | CCRF-CEM 43.4 µM | SNB-75 69.8 µM | HCT-116 > 100 µM | SR 51.5 µM | HOP-62 > 100 µM | SK-MEL-28 > 100 µM | MDA-MB-435 > 100 µM | CAKI-1 > 100 µM | KM12 > 100 µM | NCI-H226 > 100 µM | EKVX > 100 µM | OVCAR-4 > 100 µM | ACHN > 100 µM | MDA-MB-231 > 100 µM | K562 43.7 µM | Hs-578T > 100 µM | UO-31 > 100 µM | OVCAR-5 > 100 µM | SW-620 > 100 µM | SF-539 > 100 µM | HOP-92 > 100 µM | LOX IMVI 64.4 µM | MCF7 > 100 µM | SK-MEL-5 23.8 µM | SN12C > 100 µM | RPMI-8226 49.8 µM | A498 > 100 µM | SF-295 92.3 µM | 786-0 > 100 µM | RXF 393 > 100 µM | HL-60 17.6 µM | UACC-257 29.4 µM | DU-145 > 100 µM | NCI-H522 39.5 µM | IGROV-1 87.5 µM | OVCAR-3 86.1 µM | U-251 > 100 µM | OVCAR-8 > 100 µM | NCI-H460 78 µM | NCI/ADR-RES > 100 µM | MOLT-4 29.9 µM | NCI-H23 > 100 µM | HT-29 > 100 µM | A549 > 100 µM | TK-10 > 100 µM | SK-OV-3 > 100 µM | UACC-62 > 100 µM | SK-MEL-2 > 100 µM | M14 > 100 µM | PC-3 74.6 µM | SF-268 > 100 µM | Malme-3M 22.6 µM | SNB-19 > 100 µM | COLO 205 > 100 µM

CN(CC(=O)O)c1ncc2c(n1)-c1ccccc1SC2
inactive: MDA-N > 100 µM | CCRF-CEM > 100 µM | SNB-75 > 100 µM | HCT-116 > 100 µM | SR 92.3 µM | SK-MEL-28 > 100 µM | MDA-MB-435 > 100 µM | CAKI-1 > 100 µM | KM12 > 100 µM | EKVX > 100 µM | OVCAR-4 > 100 µM | ACHN > 100 µM | MDA-MB-231 > 100 µM | Hs-578T > 100 µM | UO-31 > 100 µM | OVCAR-5 > 100 µM | SW-620 > 100 µM | SF-539 > 100 µM | HOP-92 > 100 µM | LOX IMVI > 100 µM | MCF7 69.8 µM | SK-MEL-5 > 100 µM | SN12C > 100 µM | RPMI-8226 > 100 µM | A498 > 100 µM | SF-295 > 100 µM | 786-0 > 100 µM | HL-60 > 100 µM | UACC-257 > 100 µM | DU-145 > 100 µM | NCI-H522 > 100 µM | IGROV-1 > 100 µM | U-251 > 100 µM | OVCAR-8 > 100 µM | NCI-H460 > 100 µM | NCI/ADR-RES > 100 µM | MOLT-4 > 100 µM | NCI-H23 > 100 µM | HT-29 > 100 µM | A549 > 100 µM | TK-10 > 100 µM | UACC-62 > 100 µM | SK-MEL-2 > 100 µM | M14 > 100 µM | PC-3 > 100 µM | SF-268 > 100 µM | Malme-3M 50.1 µM | SNB-19 > 100 µM | COLO 205 > 100 µM
> 100 µM: HCT-15
